# Laboratory results: ChEMBL document CHEMBL1201862, “PubChem BioAssay data set” (2004)
#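 Results reflect a 48-hour exposure of cells in 96-well plates to compound at five concentrations. GI50: concentration for 50% inhibition of growth.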 Active and inactive are the calls of the source. Rule as the data show it: active = GI50 up to about 1.1 µM and inactive = higher.
# Assays:
# Experiment in all cases: NCI-60 cell line screen, 48 h
# HCT-15 = test system: HCT-15
# NCI-H460 = test system: NCI-H460
# SF-268 = test system: SF-268
# U-251 = test system: U-251
# SW-620 = test system: SW-620
# HCT-116 = test system: HCT-116
# M14 = test system: M14
# HCC 2998 = test system: HCC 2998
# HOP-62 = test system: HOP-62
# UO-31 = test system: UO-31
# 786-0 = test system: 786-0
# SNB-75 = test system: SNB-75
# SK-MEL-2 = test system: SK-MEL-2
# A498 = test system: A498
# NCI-H23 = test system: NCI-H23
# MCF7 = test system: MCF7
# PC-3 = test system: PC-3
# Hs-578T = test system: Hs-578T
# MDA-MB-435 = test system: MDA-MB-435
Compound,GI50 (HCT-15) [µM],GI50 (NCI-H460),GI50 (SF-268),GI50 (U-251),GI50 (SW-620),GI50 (HCT-116),GI50 (M14),GI50 (HCC 2998),GI50 (HOP-62),GI50 (UO-31),GI50 (786-0),GI50 (SNB-75),GI50 (SK-MEL-2),GI50 (A498),GI50 (NCI-H23),GI50 (MCF7),GI50 (PC-3),GI50 (Hs-578T),GI50 (MDA-MB-435)
CC1(C)CC(=O)c2c(oc3cc(O)c(O)cc23)C1,25.4,32 µM (inactive),24.3 µM (inactive),33 µM (inactive),19.1 µM (inactive),> 10 µM (inactive),24.2 µM (inactive),59.4 µM (inactive),41.4 µM (inactive),37.7 µM (inactive),26.3 µM (inactive),32.8 µM (inactive),26.7 µM (inactive),39 µM (inactive),–,–,–,–,–
O=[N+]([O-])c1ccc(/C=N/n2c(S)nnc2CCc2nnc(S)n2/N=C/c2ccc([N+](=O)[O-])o2)o1,15.9,84.5 µM (inactive),22.3 µM (inactive),20 µM (inactive),16.7 µM (inactive),15.3 µM (inactive),19.2 µM (inactive),17.6 µM (inactive),24 µM (inactive),29.3 µM (inactive),17.1 µM (inactive),–,18.5 µM (inactive),> 100 µM (inactive),16.7 µM (inactive),18.1 µM (inactive),82.6 µM (inactive),25.5 µM (inactive),17.6 µM (inactive)
CCn1c2c(c3ccccc31)[C@@H](c1ccc(Cl)cc1)CC1C(=O)N(c3ccccc3)C(=O)C21 (some centres not stated),> 100,67.1 µM (inactive),77.8 µM (inactive),52.6 µM (inactive),> 100 µM (inactive),37.6 µM (inactive),> 100 µM (inactive),86.9 µM (inactive),85.5 µM (inactive),> 100 µM (inactive),> 100 µM (inactive),71.9 µM (inactive),91.8 µM (inactive),69.7 µM (inactive),95.3 µM (inactive),–,–,–,–
CC1=C(c2cc(C(=O)Nc3cc(C)ccc3C)nc(N)n2)Sc2ccccc2N1,> 100,> 100 µM (inactive),> 100 µM (inactive),> 100 µM (inactive),> 100 µM (inactive),> 100 µM (inactive),> 100 µM (inactive),> 100 µM (inactive),> 100 µM (inactive),> 100 µM (inactive),> 100 µM (inactive),> 100 µM (inactive),> 100 µM (inactive),> 100 µM (inactive),> 100 µM (inactive),–,–,–,–
C=CCc1cc(OC)c2c(c1)C(OC)CC(c1ccc(OC)c(OC)c1)O2 (configuration not stated),61.5,> 100 µM (inactive),73.8 µM (inactive),> 100 µM (inactive),> 100 µM (inactive),> 100 µM (inactive),78.2 µM (inactive),> 100 µM (inactive),> 100 µM (inactive),42.3 µM (inactive),> 100 µM (inactive),54.8 µM (inactive),> 100 µM (inactive),> 100 µM (inactive),–,–,–,–,–
COc1cc(OC)c(C2c3cc4c(cc3OC(N3CCOCC3)C2C)OCO4)c(OC)c1 (configuration not stated),17.4,16.4 µM (inactive),20.5 µM (inactive),–,23.4 µM (inactive),7.4 µM (inactive),53.1 µM (inactive),> 100 µM (inactive),> 100 µM (inactive),16.5 µM (inactive),40.7 µM (inactive),16.4 µM (inactive),> 100 µM (inactive),–,> 100 µM (inactive),37.8 µM (inactive),42.3 µM (inactive),2.45 µM (inactive),38.7 µM (inactive)
COc1cc(/C=C2\[C@H]3c4c(c(OC)c(C)c(OC)c4OC)C[C@@H](C(=O)N2Cc2ccccc2)N3C(=O)OCC(C)C)c(OC)c(C)c1OC,> 100,–,> 100 µM (inactive),> 85.5 µM (inactive),> 31.6 µM (inactive),12.1 µM (inactive),> 100 µM (inactive),> 78.9 µM (inactive),> 100 µM (inactive),> 100 µM (inactive),> 100 µM (inactive),> 83.2 µM (inactive),> 100 µM (inactive),> 65.9 µM (inactive),> 100 µM (inactive),–,–,–,–
Cn1ccnc1S/C(=C\C=C(C#N)C#N)c1ccc(Cl)cc1,2.52,7.33 µM (inactive),1.84 µM (inactive),2.82 µM (inactive),0.303 µM (active),0.324 µM (active),0.993 µM (active),4.92 µM (inactive),4.17 µM (inactive),2.64 µM (inactive),1.33 µM (inactive),5.37 µM (inactive),–,1.27 µM (inactive),1.61 µM (inactive),0.698 µM (active),1.6 µM (inactive),4.38 µM (inactive),0.951 µM (active)
C=CCOC(=O)C1CCC(=O)N1C(=O)C(Cl)Cl (configuration not stated),> 100,> 100 µM (inactive),> 100 µM (inactive),> 100 µM (inactive),> 100 µM (inactive),> 100 µM (inactive),> 100 µM (inactive),> 100 µM (inactive),> 100 µM (inactive),> 100 µM (inactive),> 100 µM (inactive),61.8 µM (inactive),> 100 µM (inactive),> 100 µM (inactive),> 100 µM (inactive),–,–,–,–
O=c1/c(=C/c2cccc3ccccc23)sc2nc3ccccc3n12,> 100,> 100 µM (inactive),> 100 µM (inactive),> 100 µM (inactive),> 100 µM (inactive),> 100 µM (inactive),> 100 µM (inactive),> 100 µM (inactive),> 100 µM (inactive),> 100 µM (inactive),> 100 µM (inactive),71.9 µM (inactive),> 100 µM (inactive),> 100 µM (inactive),> 100 µM (inactive),–,–,–,–
CCOc1ccccc1/N=C(/NC(=O)CC)SC,52.5,> 10 µM (inactive),> 10 µM (inactive),> 10 µM (inactive),> 10 µM (inactive),81.1 µM (inactive),> 10 µM (inactive),> 10 µM (inactive),> 10 µM (inactive),> 10 µM (inactive),> 10 µM (inactive),67.6 µM (inactive),38.7 µM (inactive),> 10 µM (inactive),70.5 µM (inactive),–,–,–,–
CC(=O)Oc1ccc2c(C)cc(=O)oc2c1OC(C)=O,21.1,–,25.3 µM (inactive),35.2 µM (inactive),30.7 µM (inactive),32.7 µM (inactive),39.1 µM (inactive),–,46.5 µM (inactive),26.5 µM (inactive),37.2 µM (inactive),27 µM (inactive),> 100 µM (inactive),37.7 µM (inactive),26.9 µM (inactive),49.4 µM (inactive),34.1 µM (inactive),24.2 µM (inactive),63.4 µM (inactive)
CC1=Cc2cccc(C)c2C(=O)C1=O [O-HIBISCANONE],6.11,20.5 µM (inactive),11.3 µM (inactive),10.8 µM (inactive),1.28 µM (inactive),2.73 µM (inactive),4.67 µM (inactive),14.6 µM (inactive),17.5 µM (inactive),13.9 µM (inactive),2.88 µM (inactive),15.8 µM (inactive),17.3 µM (inactive),17.1 µM (inactive),11.1 µM (inactive),–,–,–,–
